Assay results from PubChem BioAssay (NCI).
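Compound exposure: 48 hours, 5 concentrations, 96-well plates. At the GI50, growth is halved. At the TGI there is no net growth.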

Columns and labels:
Assay in all cases: DTP human tumour cell line panel, 48 h
SF-539 CNS = tested on: SF-539 CNS
NCI-H226 lung = tested on: NCI-H226 lung
KM12 colon = tested on: KM12 colon
IGROV1 ovarian = tested on: IGROV1 ovarian
M14 melanoma = tested on: M14 melanoma
MOLT-4 leukemia = tested on: MOLT-4 leukemia
PC-3 prostate = tested on: PC-3 prostate
HT29 colon = tested on: HT29 colon
NCI-H460 lung = tested on: NCI-H460 lung
K-562 leukemia = tested on: K-562 leukemia

Structure (SMILES)	GI50 (SF-539 CNS) [µM]	TGI (SF-539 CNS) [µM]	GI50 (NCI-H226 lung) [µM]	TGI (NCI-H226 lung) [µM]	GI50 (KM12 colon) [µM]	TGI (KM12 colon) [µM]	GI50 (IGROV1 ovarian) [µM]	TGI (IGROV1 ovarian) [µM]	GI50 (M14 melanoma) [µM]	TGI (M14 melanoma) [µM]	GI50 (MOLT-4 leukemia) [µM]	TGI (MOLT-4 leukemia) [µM]	GI50 (PC-3 prostate) [µM]	TGI (PC-3 prostate) [µM]	GI50 (HT29 colon) [µM]	TGI (HT29 colon) [µM]	GI50 (NCI-H460 lung) [µM]	TGI (NCI-H460 lung) [µM]	GI50 (K-562 leukemia) [µM]	TGI (K-562 leukemia) [µM]
CN(C)C[C@H]1CCn2c(c(C3=C(c4cn(C)c5ccccc45)C(=O)NC3=O)c3ccccc32)C1	4.01	7.73	5.13	14.1	4.57	8.66	6.11	12.2	4.49	8.47	6.38	14	3.92	8.56	3.45	11.5	4.86	9.55	5.29	10.8
COc1cc(OC)cc(-c2nc3sccn3c2/C=N/N=C(N)N)c1	8.26	15.7	6.96	14.8	3.13	10.3	11.6	26.2	6.96	13.4	10.9	18.6	9.23	16.2	8.14	14.9	13.3	42.9	9.7	19
Nc1ncn(C2OC(COP(=O)(O)O)C(O)C2O)c(=O)n1 (configuration not stated)		> 100		> 100		> 100		> 100		> 100		> 59.2		> 100		> 100		> 100		> 100
Cc1cc(C(=O)Nc2cc(Oc3ccc4nc(NC(=O)C5CC5)cn4n3)ccc2C)n(C)n1	3.35	> 10	0.86	> 10	> 10	> 10	5.06	> 10	5.51	> 10	> 10	> 10	> 10	> 10	> 10	> 10	> 10	> 10	0.555	> 10
O=c1cc(-c2ccccc2)oc2ccc(OC/C(=N/O)c3ccc(F)cc3)cc12	1.92	4.06	13.6	> 50	1.6	6.01	21.7	> 50	4.48	> 50	3.54	> 50	2.72	12.3	2.1	41.6	2.54	12.1	2.61	> 50
CC(CN(C)C)S(=O)(=O)c1ccc(-c2cnc(N)c(C(=O)Nc3ccccc3)n2)cc1 (configuration not stated)	2.75	9.76	12.9	35.4	11.1	28.7	3.15	36	4.06	21.9	3.15	14.2	10.9	> 73.8	2.68	13.4	2.95	22.2	3	22
Clc1ccccc1[C@@H]1C[C@@H]2Cc3cc(Br)c4ccccc4c3N1O2	3.04	> 100	3.65	> 100	4.23	> 100	10.4	> 100	3.74	> 100	6.94	> 100	5.85	> 100	2.38	5.19	4.08	> 100	3.92	> 100
CCCCCCCCCCCC[N+](C)(C)Cc1ccccc1	1.66	3.17	2.84	18.6	1.48	3.14	1.43	3.66	1.92	4.32	2.18	5.4	0.49	3.25	1.23	3.24	3.42	12.7	1.56	6.63
CC(=O)NNc1nc(C)c(C(/C=C/c2ccc([N+](=O)[O-])cc2)=N/NC(N)=O)s1		> 100		> 100		> 100		> 100		> 100		> 100		> 100		> 100		> 100		> 100
Cc1ccc(-c2c(C#N)[n+](=O)c3cc(F)c(F)cc3n2[O-])cc1	15.3	33.9	15.7	32.3	9.9	28.3	3.59	> 100	2.18	5.73	0.851	2.71	1.43	3.35	24.7	61	12.2	30.3	1.64	4.29
C=C1C(=O)O[C@H]2[C@H]1CC/C(COC(=O)c1cn(C)c3ccccc13)=C\CC[C@@]1(C)O[C@@H]21	0.741	2.13	1.48	3.26	1.83	4.79	0.692	2.58	1.41	3.3	0.578	3.54	1.47	4.29	0.526	1.78	1.73	3.92	0.4	5.13
C/C(=N\NC(=O)CC#N)C(CN1CCCCC1)C(c1ccccc1)c1c(O)c2ccccc2oc1=O (configuration not stated)		> 100		> 100		> 100		> 100		> 100		69.4		> 100		> 100				> 100
COc1ccc(OC)c(NC(=O)c2cccc(NC3=C(Cl)C(=O)N(Cc4ccccc4)C3=O)c2)c1	> 94.9	> 100	> 67.3	> 100	> 100	> 100	> 100	> 100	> 75	> 100	7.66	> 100	38.2	> 100	> 100	> 100	> 58.1	> 100	35.4	> 100
COc1cc(-c2nn(-c3cccc(NC(=O)NCCNS(=O)(=O)c4ccc(Cl)cc4)c3)cc2-c2ccncc2)ccc1Cl	0.48	2.11	1.45	14.3	0.456	2.41	1.18	> 100	0.423	2.42	1.03	> 100	0.49	9.55	0.37	1.51	0.413	3.69		
